Read-outs that look alike come from different tables or passages of the source. Non-standard residues stand in square brackets, D forms with d. No end group written: not given here. Aib = CC(C)(N)C(=O)O
What was measured:
[1] = system: Mice with high-fat-diet-induced obesity; experiment: Experimental Example 2: co-administration of long-acting glucagon derivative and oral diabetes drug in mice with high-fat-diet-induced obesity; type: in vivo, Mouse; settings: 28 days; long-acting glucagon derivative 1.2 nmol/kg once every 2 days; Sitagliptin 49.2 mg/kg, Empagliflozin 12.3 mg/kg once a day; SAXENDA 50 nmol/kg twice a day
Procedure: (§1) Mice with high-fat-diet-induced obesity, which have been widely used as obesity animal models, were used for this experiment. The body weights of the mice were in the range of about 50 g to 55 g. During this experiment, mice were housed 7 mice per each group and were given ad libitum access to water. Lights were turned off between 6 P.M. and 6 A. M.
Test groups fed with high-fat diet include: Group 1: administered with an excipient not including long-acting glucagon (5 mL/kg, injection once every 2 days)-control (Vehicle), Group 2: administered with a GLP-1 analog obesity drug (SAXENDA®, 50 nmol/kg, injection twice a day), Group 3: administered with the long-acting glucagon derivative (1.2 nmol/kg, injection once every 2 days), Group 4: administered with a DPP-4 inhibitor (Sitagliptin, 49.2 mg/kg, injection once a day), Group 5: administered with an SGLT-2 inhibitor (Empagliflozin, 12.3 mg/kg, injection once a day), Group 6: co-administered with Sitagliptin (49.2 mg/kg, injection once a day) and the long-acting glucagon derivative (1.2 nmol/kg, injection once every 2 days), and Group 7: Empagliflozin (12.3 mg/kg, injection once a day) and the long-acting glucagon derivative (1.2 nmol/kg, injection once every 2 days). The long-acting glucagon derivative used in this experiment was the long-acting derivative according to Example 5.
(§2) The experiment was terminated on the 28th day, and changes in body weight of the mice in each group were measured at 2-day intervals during the progress of the experiment, and changes in blood glucose level were measured before administration and at the 1st, 4th, 7th, 10th, 13th, 16th, 19th, 22nd, 25th, and 28th days after administration. Upon termination of the experiment, the weight of fat and HOMA-IR were measured.
(§3) Statistical analysis was performed by comparing the excipient group (control) with the test groups by 1-way ANOVA.

[2] = cited from earlier work
[3] = system: Mice with high-fat-diet-induced obesity; experiment: Experimental Example 1: body weight, fat, HOMA-IR and blood glucose in mice with high-fat-diet-induced obesity; type: in vivo, Mouse; settings: 28 days; long-acting glucagon derivative 1.2 nmol/kg once every 2 days; SAXENDA 50 nmol/kg twice a day; Sitagliptin 49.2 mg/kg once a day
Procedure: as §1
Test groups fed with high-fat diet include: Group 1: administered with an excipient not including long-acting glucagon (5 mL/kg, injection once every 2 days)-control (Vehicle), Group 2: administered with a GLP-1 analog obesity drug (SAXENDA®, 50 nmol/kg, injection twice a day), Group 3: administered with the long-acting glucagon derivative (1.2 nmol/kg, injection once every 2 days), and Group 4: administered with a DPP-4 inhibitor (Sitagliptin, 49.2 mg/kg, injection once a day).
as §2, §3

[4] = system: Mice with high-fat-diet-induced obesity; experiment: Experimental Example 3: long-acting glucagon derivative and GLP-1 analogs, alone and co-administered, in mice with high-fat-diet-induced obesity; type: in vivo, Mouse; settings: 28 days; glucagon long-acting derivative 2.0 nmol/kg once every 2 days; SAXENDA 50 nmol/kg twice a day; OZEMPIC 20.5 nmol/kg, TRULICITY 2.7 nmol/kg once every 2 days
Procedure: Mice with high-fat-diet-induced obesity, which have been widely used as obesity animal models, were used for this experiment. The body weights of the mice were in the range of about 50 g to 55 g. During this experiment, mice were housed 7 mice per each group and were given ad libitum access to water. Light was turned off between 6 P.M. and 6 A.M. […]
The experiment was terminated on the 28th day, and changes in body weight of the mice in each group were measured at 2-day intervals during the progress of the experiment. Upon termination of the experiment, blood lipid levels, weights of fat, and blood glucose levels were measured. […]

human glucagon receptor = human glucagon receptor (human, UniProt P47871 26-477); experiment: cell-based or functional assay
Sequence of human glucagon receptor (P47871 26-477): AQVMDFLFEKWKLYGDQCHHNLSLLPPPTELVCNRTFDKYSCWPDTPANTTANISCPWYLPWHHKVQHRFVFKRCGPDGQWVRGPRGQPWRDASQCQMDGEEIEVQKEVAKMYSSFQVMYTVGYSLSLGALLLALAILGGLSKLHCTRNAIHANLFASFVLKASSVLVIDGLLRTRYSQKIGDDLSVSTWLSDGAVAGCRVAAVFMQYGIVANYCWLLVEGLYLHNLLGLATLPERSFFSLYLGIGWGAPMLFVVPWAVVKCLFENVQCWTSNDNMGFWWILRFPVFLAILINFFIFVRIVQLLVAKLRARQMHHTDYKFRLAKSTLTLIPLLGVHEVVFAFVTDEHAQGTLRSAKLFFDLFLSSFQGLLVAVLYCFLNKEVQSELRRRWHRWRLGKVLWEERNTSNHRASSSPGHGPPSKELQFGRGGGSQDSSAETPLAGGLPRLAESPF

OC[C@H]1O[C@@H](c2ccc(Cl)c(Cc3ccc(O[C@H]4CCOC4)cc3)c2)[C@H](O)[C@@H](O)[C@@H]1O [Empagliflozin]
weight loss (change in body weight) [1]: −10.4%

CCCCCCCCCCC[C@@H](C[C@@H]1OC(=O)[C@H]1CCCCCC)OC(=O)[C@H](CC(C)C)NC=O [Orlistat]
weight loss ([2]; when taken for one year): about 4 kg

Cc1c(C(=O)NN2CCCCC2)nn(-c2ccc(Cl)cc2Cl)c1-c1ccc(Cl)cc1 [Rimonabant]
side-effects ([2]; reported): side-effect of central nervous system disorder

CC(C)CC(N(C)C)C1(c2ccc(Cl)cc2)CCC1 (stereo not drawn) [Sibutramine]
side-effects ([2]; reported): cardiovascular side-effects

N[C@@H](CC(=O)N1CCn2c(nnc2C(F)(F)F)C1)Cc1cc(F)c(F)cc1F [Sitagliptin]
change in body weight compared to body weight before administration [3]: −0.1% | weight loss (change in body weight) [1]: −0.1%

Contrave
side-effects ([2]; in vivo): cardiovascular side-effects

SAXENDA®: GLP-1 analog obesity drug (HAEGTFTSDVSSYLEGQAAKEFIAWLVRGRG; chains of the INN, looked up)
change in body weight compared to body weight before administration [3]: −16.3% | weight loss (change in body weight) [1]: −16.3% | weight loss compared to the body weight before administration [4]: −18.10%

TRULICITY®: long-acting GLP-1 analog
weight loss compared to the body weight before administration [4]: −3.81%

B1: glucagon derivative of SEQ ID NO: 43 (peptide)
peptide: Y[Aib]QGTFTSDCSKYLDSRRAQDFVQWLMNT
in vitro activity (%, relative to SEQ ID NO: 1); cAMP assay, from EC50 (human glucagon receptor): 1.6%

B2: glucagon derivative of SEQ ID NO: 4 (peptide)
peptide: HSQGTFTSDYSKYLDSCDAQDFVQWLMNT
in vitro activity (%, relative to SEQ ID NO: 1); cAMP assay, from EC50 (human glucagon receptor): < 0.1%

B3: glucagon derivative of SEQ ID NO: 5 (peptide)
peptide: HSQGTFTSDYSKYLDSCEAQDFVQWLMNT
in vitro activity (%, relative to SEQ ID NO: 1); cAMP assay, from EC50 (human glucagon receptor): 0.3%

B4: glucagon derivative of SEQ ID NO: 7 (peptide)
peptide: YSQGTFTSDYSKYLDSCEADDFVQWLMNT
in vitro activity (%, relative to SEQ ID NO: 1); cAMP assay, from EC50 (human glucagon receptor): < 0.1%

B5: glucagon derivative of SEQ ID NO: 8 (peptide)
peptide: Y[Aib]QGTFTSDYSKYLDSCDAQDFVQWLINT
in vitro activity (%, relative to SEQ ID NO: 1); cAMP assay, from EC50 (human glucagon receptor): < 0.1%

B6: glucagon derivative of SEQ ID NO: 6 (peptide)
peptide: HSQGTFTSDYSKYLDSCEADDFVQWLMNT
in vitro activity (%, relative to SEQ ID NO: 1); cAMP assay, from EC50 (human glucagon receptor): < 0.1%

B7: glucagon derivative of SEQ ID NO: 44 (peptide)
peptide: YXQGTFTSDYSKYLDSRRAQDFVQWLMNTC
modifications: X at position 2 = aminoisobutyric acid (Aib)
in vitro activity (%, relative to SEQ ID NO: 1); cAMP assay, from EC50 (human glucagon receptor): 75.4%

— patent US20210338779A1, “THERAPEUTIC USE OF GLUCAGON AND COMBINATION INCLUDING THE SAME” (HANMI PHARM. CO., LTD, priority 2018, published 2021)
